Some test systems named below: HCT-116 colon; TK-10 renal; HOP-62 NSCLC; EKVX NSCLC; CAKI-1 renal; HCT-15 colon; SK-MEL-28 melanoma; SNB-75 CNS; HS 578T breast; SK-MEL-2 melanoma.
Experiment in all cases: NCI tumour cell line growth inhibition, 48 h

The structures appear in SMILES notation.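 Grown in 96-well plates, cells were treated for 48 hours with each compound at five concentrations. Insufficient inhibition: endpoint recorded as highest concentration tested. Abbreviation: GI50, concentration required for 50% inhibition of growth. TGI denotes the concentration required for complete inhibition of growth.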

`COc1ccc(C2C3=C(COC3=O)Oc3cc4c(cc32)OCO4)c(OC)c1` (configuration not stated): the TGI with HCT-116 colon, with TK-10 renal, in the assay with HOP-62 NSCLC, in the assay with EKVX NSCLC, in the assay with CAKI-1 renal and in the assay on HCT-15 colon was over 100 µM throughout. In addition, the TGI with SK-MEL-28 melanoma was over 100 µM; in the assay on SNB-75 CNS, 46.8 µM; in the assay on HS 578T breast, 98.3 µM.

For the compound `CCC1=C(C(C)=O)[C@@H]2CCCCC[C@@H](C(=O)OC)C2C1=O` (some centres not stated), the TGI in the assay on HCT-116 colon, in the assay on TK-10 renal, with HOP-62 NSCLC, in the assay on SK-MEL-2 melanoma, in the assay on EKVX NSCLC and in the assay with CAKI-1 renal was over 100 µM in each case. In addition, the TGI in the assay on HCT-15 colon, in the assay on SK-MEL-28 melanoma and in the assay with SNB-75 CNS was over 100 µM in each case.

`Cc1cc(C)nc(NS(=O)(=O)c2ccc(Nc3c4ccccc4nc4c(C(=O)N5CCN(CCOS(C)(=O)=O)CC5)cccc34)cc2)n1`: the TGI with HCT-116 colon, in the assay with TK-10 renal, in the assay on HOP-62 NSCLC, in the assay on SK-MEL-2 melanoma, with CAKI-1 renal and in the assay on HCT-15 colon was over 100 µM in each case. Moreover, the TGI in the assay with SK-MEL-28 melanoma and in the assay on SNB-75 CNS was over 100 µM in each case.

For the compound `Cc1cc(C)c2c(=O)cc(-c3cccc(F)c3)[nH]c2n1`, the TGI is 0.433 µM in the assay with HCT-116 colon; over 100 µM in the assay with TK-10 renal; over 79.9 µM in the assay on HOP-62 NSCLC; over 100 µM in the assay on EKVX NSCLC; over 66.3 µM with CAKI-1 renal; over 38.2 µM with HCT-15 colon. The TGI in the assay on SK-MEL-28 melanoma was 92.9 µM; in the assay with SNB-75 CNS, over 100 µM; in the assay with HS 578T breast it was 3.36 µM.

Consider `CCCCOc1ccc(OCCCCCCCCCC[N+](C)(C)C)cc1`, for which the TGI in the assay on HCT-116 colon came to 9.31 µM; in the assay with HOP-62 NSCLC, 13.7 µM; in the assay with SK-MEL-2 melanoma, 5 µM; in the assay on EKVX NSCLC it was 46 µM; with CAKI-1 renal, 16.6 µM; in the assay with HCT-15 colon, 30.5 µM. Further, the TGI stood at 18 µM in the assay with SK-MEL-28 melanoma and 6.44 µM with SNB-75 CNS.

As to `COc1ccccc1CN=C1Nc2ccncc2S(=O)(=O)N1c1ccccc1`, the TGI in the assay with HCT-116 colon, in the assay on TK-10 renal, with EKVX NSCLC, in the assay on CAKI-1 renal, in the assay on HCT-15 colon and in the assay with SK-MEL-28 melanoma was over 100 µM throughout. This compound displayed a TGI in the assay with HS 578T breast of over 100 µM.

As to `Cn1c(=O)c(-c2ccccc2)c(O)c2ccccc21`, the TGI with HCT-116 colon, in the assay on TK-10 renal, in the assay on HOP-62 NSCLC, in the assay on EKVX NSCLC, in the assay on CAKI-1 renal and with HCT-15 colon was over 100 µM in each case. Further, the TGI in the assay with SK-MEL-28 melanoma, in the assay with SNB-75 CNS and in the assay with HS 578T breast was over 100 µM each time.

Regarding `COc1cc(S(=O)(=O)Nc2ccc(C(=O)/C=C/c3ccc(O)cc3)cc2)ccc1F`, the GI50 in the assay with HCT-116 colon is over 100 µM; in the assay with TK-10 renal it was 47 µM; with HOP-62 NSCLC, over 100 µM; with EKVX NSCLC, 80.5 µM; with CAKI-1 renal, over 100 µM; in the assay on HCT-15 colon it was over 100 µM. The GI50 was over 100 µM in the assay on SK-MEL-28 melanoma, 87.5 µM with SNB-75 CNS and over 100 µM in the assay on HS 578T breast. In addition, the TGI in the assay with HCT-116 colon, in the assay with TK-10 renal, in the assay on HOP-62 NSCLC, in the assay with EKVX NSCLC, with CAKI-1 renal and in the assay on HCT-15 colon was over 100 µM throughout. Moreover, the TGI with SK-MEL-28 melanoma, in the assay with SNB-75 CNS and with HS 578T breast was over 100 µM in each case.

Turning to `O=C(CCc1cc(O)cc(O)c1)NCCCNC(=O)CCc1cc(O)cc(O)c1`, the TGI in the assay with HCT-116 colon, with TK-10 renal, in the assay with HOP-62 NSCLC, in the assay on SK-MEL-2 melanoma, with EKVX NSCLC and in the assay on CAKI-1 renal was over 100 µM throughout. Further, the TGI in the assay with HCT-15 colon and in the assay on SK-MEL-28 melanoma was over 100 µM throughout.

Turning to `CC(C)N1CC2CC(CN(C(=O)c3ccccc3)C2)C1`, the TGI in the assay with TK-10 renal, with HOP-62 NSCLC, with SK-MEL-2 melanoma, with EKVX NSCLC, with CAKI-1 renal and in the assay on HCT-15 colon was over 100 µM in each case. For the same compound, the TGI with SK-MEL-28 melanoma and with SNB-75 CNS was over 100 µM throughout.

Turning to `CN(C)CCNC(=O)c1cc(Cl)cc2ccc(-c3ccccc3)nc12`, the TGI came out at 10.7 µM in the assay with HCT-116 colon; 10.3 µM with HOP-62 NSCLC; 17.1 µM in the assay on SK-MEL-2 melanoma; 21.5 µM with EKVX NSCLC; 8.56 µM in the assay with CAKI-1 renal; 9.49 µM in the assay with HCT-15 colon. The figures for the TGI in the assay on SK-MEL-28 melanoma and with SNB-75 CNS were 16.1 µM and 14 µM, respectively.

Turning to `NCCCCNCCCNC(=O)c1nc(-c2nc(CCN)sc2Cl)sc1Cl`, the TGI in the assay with HCT-116 colon, with TK-10 renal, in the assay with HOP-62 NSCLC, with EKVX NSCLC, with CAKI-1 renal and in the assay with HCT-15 colon was over 100 µM each time. The TGI with SK-MEL-28 melanoma and in the assay on SNB-75 CNS was over 100 µM each time.

Regarding `COC(=O)C1C(C(=O)OC)C2(OC(c3ccc(Cl)cc3)=CC2=O)C12OC(c1ccc(Cl)cc1)=CC2=O` (configuration not stated), the TGI is 30.4 µM with HCT-116 colon; 48.5 µM in the assay on TK-10 renal; 55.3 µM in the assay with SK-MEL-2 melanoma; 54.9 µM with EKVX NSCLC; 59 µM in the assay on CAKI-1 renal; 35.2 µM with HCT-15 colon. Further, the TGI with SK-MEL-28 melanoma and in the assay on HS 578T breast was over 100 µM in each case.

For the origin of these results see PubChem BioAssay (NCI).
